Data as given in ChEMBL document CHEMBL5241092, “The antibacterial activity of fluoroquinolone derivatives: An update (2018-2021)” (2021).
In brackets after ≈: the same amount, converted by molar mass.

Legend:
Type in all cases: functional
Enterococcus faecalis = assay: Antibacterial activity against Enterococcus faecalis
Klebsiella pneumoniae = assay: Antibacterial activity against Klebsiella pneumoniae
Staphylococcus aureus = assay: Antibacterial activity against Staphylococcus aureus
Listeria monocytogenes = assay: Antibacterial activity against Listeria monocytogenes
[1] = test system: Yersinia pseudotuberculosis; assay: Antibacterial activity against Yersinia pseudotuberculosis
Escherichia coli = assay: Antibacterial activity against Escherichia coli
Pseudomonas aeruginosa = assay: Antibacterial activity against Pseudomonas aeruginosa
[2] = test system: Lactobacillus acidophilus; assay: Antibacterial activity against Lactobacillus acidophilus
Bacillus cereus = assay: Antibacterial activity against Bacillus cereus
Bacillus subtilis = assay: Antibacterial activity against Bacillus subtilis
[3] = test system: Staphylococcus epidermidis; assay: Antibacterial activity against Staphylococcus epidermidis

Row | SMILES | MIC (Enterococcus faecalis) [µg/mL] | MIC (Klebsiella pneumoniae) [µg/mL] | MIC (Staphylococcus aureus) [µg/mL] | MIC (Listeria monocytogenes) [µg/mL] | MIC [1] [µg/mL] | MIC (Escherichia coli) [µg/mL] | MIC (Pseudomonas aeruginosa) [µg/mL] | MIC [2] [µg/mL] | MIC (Bacillus cereus) [µg/mL] | MIC (Bacillus subtilis) [µg/mL] | MIC [3] [µg/mL]
1 | COc1ccc(S(=O)(=O)N2CCC[C@@H]3CN(c4c(F)cc5c(=O)c(C(=O)O)cn(C6CC6)c5c4OC)C[C@@H]32)cc1 | < 2.42 | < 2.42 | < 2.42 | < 2.42 | < 2.42 | < 2.42 | < 2.42 | < 2.42 | – | – | –
2 | C=CCn1c(SCC(=O)N2CCN(c3cc4c(cc3F)c(=O)c(C(=O)O)cn4C3CC3)CC2)nnc1-c1ccccc1 | – | 1.42 (≈ 2.41 µM) | 1.42 (≈ 2.41 µM) | – | – | 1.42 (≈ 2.41 µM) | 1.42 (≈ 2.41 µM) | – | – | – | –
3 | COc1ccc(C(=O)N2CCC[C@@H]3CN(c4c(F)cc5c(=O)c(C(=O)O)cn(C6CC6)c5c4OC)C[C@@H]32)cc1 | ≤ 1.23 | < 1.23 | ≤ 1.23 | ≤ 1.23 | < 1.23 | < 1.23 | < 1.23 | < 1.23 | ≤ 1.23 | – | –
4 | COc1c(N2C[C@H]3CCCN(S(=O)(=O)c4ccc(Cl)cc4)[C@H]3C2)c(F)cc2c(=O)c(C(=O)O)cn(C3CC3)c12 | < 2.42 | < 2.42 | < 2.42 | < 2.42 | < 2.42 | < 2.42 | < 2.42 | < 2.42 | – | – | –
5 | COc1c(N2C[C@H]3CCCN(C(=O)c4ccc(F)cc4)[C@H]3C2)c(F)cc2c(=O)c(C(=O)O)cn(C3CC3)c12 | ≤ 1.23 | < 1.23 | ≤ 1.23 | ≤ 1.23 | < 1.23 | < 1.23 | < 1.23 | < 1.23 | ≤ 1.23 | – | –
6 | COc1c(N2C[C@H]3CCCN(Cc4ccc(F)cc4)[C@H]3C2)c(F)cc2c(=O)c(C(=O)O)cn(C3CC3)c12 | < 2.39 | < 2.39 | < 2.39 | < 2.39 | < 2.39 | < 2.39 | < 2.39 | < 2.39 | – | – | –
7 | COc1ccc(CN2CCC[C@@H]3CN(c4c(F)cc5c(=O)c(C(=O)O)cn(C6CC6)c5c4OC)C[C@@H]32)cc1 | < 2.39 | < 2.39 | < 2.39 | < 2.39 | < 2.39 | < 2.39 | < 2.39 | < 2.39 | – | – | –
8 | O=C(O)c1cn(-c2ccc(F)cc2)c2cc(N3CCN(C/C(=N/O)c4ccccc4)CC3)c(F)cc2c1=O | – | – | < 0.125 | – | – | – | – | – | – | < 0.125 | < 0.125
9 | O=C(CSC(=S)N1CCN(c2cc3c(cc2F)c(=O)c(C(=O)O)cn3C2CC2)CC1)Nc1cccc(Cl)c1 | – | – | – | – | – | 0.024 (≈ 0.0417 µM) | 0.195 (≈ 0.339 µM) | – | – | – | 0.024 (≈ 0.0417 µM)
10 | CCOc1cc(OCC)nc(/N=N/N2CCN(c3c(F)cc4c(=O)c(C(=O)C(C(C)=O)C(=O)OC)cn(C5CC5)c4c3OC)CC2)n1 (centres undefined) | – | – | 0.015 (≈ 0.0229 µM) | – | – | – | – | – | – | 0.015 (≈ 0.0229 µM) | 0.015 (≈ 0.0229 µM)
11 | COc1c(N2C[C@H]3CCCN(S(=O)(=O)c4ccccc4)[C@H]3C2)c(F)cc2c(=O)c(C(=O)O)cn(C3CC3)c12 | < 2.42 | < 2.42 | < 2.42 | < 2.42 | < 2.42 | < 2.42 | < 2.42 | < 2.42 | – | – | –
12 | COc1c(N2C[C@H]3CCCN(S(=O)(=O)c4ccc(C)cc4)[C@H]3C2)c(F)cc2c(=O)c(C(=O)O)cn(C3CC3)c12 | < 2.42 | < 2.42 | < 2.42 | < 2.42 | < 2.42 | < 2.42 | < 2.42 | < 2.42 | – | – | –
13 | O=C(O)c1cn(C2CC2)c2cc(N3CCN(Cn4nc(-c5ccccn5)oc4=S)CC3)c(F)cc2c1=O | – | – | 0.031 (≈ 0.0593 µM) | – | – | 0.031 (≈ 0.0593 µM) | 0.031 (≈ 0.0593 µM) | – | – | 0.031 (≈ 0.0593 µM) | –
14 | CCn1cc(C(=O)O)c(=O)c2cc(F)c(N3CCN(CCC(=O)Nc4ccc(/C(C)=N\OC)cc4)CC3)cc21 | – | > 50 | – | – | – | – | – | – | – | – | –
15 | COc1c(N2C[C@H]3CCCN(S(=O)(=O)c4ccc(Br)cc4)[C@H]3C2)c(F)cc2c(=O)c(C(=O)O)cn(C3CC3)c12 | < 2.42 | < 2.42 | < 2.42 | < 2.42 | < 2.42 | < 2.42 | < 2.42 | < 2.42 | – | – | –
16 | C=Cn1c(SCC(=O)N2CCN(c3cc4c(cc3F)c(=O)c(C(=O)O)cn4C3CC3)CC2)nnc1-c1ccccc1 | – | 1.7 (≈ 2.96 µM) | 1.7 (≈ 2.96 µM) | – | – | 1.7 (≈ 2.96 µM) | 1.42 (≈ 2.47 µM) | – | – | – | –
17 | COc1c(N2C[C@@H]3CCCN[C@@H]3C2)c(F)cc2c(=O)c(C(=O)O)cn(C3CC3)c12 [MOXIFLOXACIN] | < 0.6 | – | – | < 0.6 | – | – | – | – | < 0.6 | – | –
